For two compounds, IC50, Ki and EC50 results are on record in ChEMBL document CHEMBL1151025, “Synthesis and influenza neuraminidase inhibitory activity of aromatic analogues of sialic acid” (Bioorg Med Chem Lett, 1995).

The nature of assay [1]: Compound was tested for Inhibition of influenza A [influenza A/Shandong/09/93 (H3N2)] neuraminidase. Details: species or system Influenza A virus.
Another assay concerns MDCK. Nature of the assay: Inhibitory activity against Influenza virus in MDCK cells. The conditions noted are these: Canis lupus familiaris. Format: functional, cell-based.

pEC50, pIC50, pKi: −log10 of the molar value. A value given as a limit tells only on which side of the number the result lay.

One may read the pIC50 as the negative decadic logarithm of the IC50, by convention in mol/L. A high value points to a small IC50. In general, pKi refers to the negative decadic logarithm of the Ki, by convention in mol/L. Higher therefore signals a low Ki. Turning to `CC(=O)Nc1c(NC(=N)N)cc(C(=O)O)cc1[C@H](O)[C@H](O)CO`, in assay [1], the pIC50 is less than 4.00 and the pKi is less than 4.00.
As a reminder, the pEC50 is the EC50 on a negative log10 scale, so that one unit is a factor of ten. A high value points to a low EC50. `CC(=O)N[C@H]1[C@H]([C@H](O)[C@H](O)CO)OC(C(=O)O)=C[C@@H]1NC(=N)N` [ZANAMIVIR] gave a pEC50 in the assay on MDCK of 7.40. Besides, in assay [1], the pIC50 is 8.30 and the pKi was 9.00.
